Literature values as cited in patent publication US10835538B2, “Method of treating benign prostatic hyperlasia with antibiotics” (Nymox Corporation, priority 2018, dated 2020).

In the case of CC(COc1ccccc1)N(CCCl)Cc1ccccc1 (centres unmarked) [phenoxybenzamine], the “Cases treated in which side effects cannot be tolerated and therapy has to be abandoned” value (human, in vivo) is listed as “about 10%” and the “Patients treated for BPH in whom side effects are present” value (hypotension, dizziness, faintness, tachycardia, weakness, retrograde or absent ejaculation) is listed as “approximately 30%”.
